From patent US9700533B2, “Maternal chelation for embryo, fetal and infant benefit” (priority 2005, dated 2017)

Experiment: Maternal chelation treatment, pregnancy, child and patient outcome
Format: in vivo, human

SMILES | outcome of subsequent child (Case 3, 500 mg oral NAC per day throughout pregnancy, also vitamin C and selenium, previous child with attention deficit disorder) | chronic fatigue (Case 5, calcium EDTA + vitamin C IV together with oral DMSA) | neurological development of the baby (Case 5, parent treated preconceptionally with calcium EDTA + vitamin C IV and oral DMSA)
CC(=O)N[C@@H](CS)C(=O)O [NAC, N-Acetyl-Cysteine] | did not have attention deficit disorder | – | –
O=C([O-])CN(CCN(CC(=O)[O-])CC(=O)[O-])CC(=O)[O-].[Ca+2].[Na+].[Na+] [calcium EDTA] | – | chronic fatigue improved | above average neurological development
